Article PMC6979384, “Characterization of the plant homeodomain (PHD) reader family for their histone tail interactions” (Epigenetics & Chromatin, 2020)
Where no end group is shown, it is not given here. [ ]: non-standard residue; d: D form. Arg(Me2a) = CN(C)C(=N)NCCC[C@H](N)C(=O)O; pS = N[C@@H](COP(=O)(O)O)C(=O)O

Assays:
Assay in all cases: Histone peptide microarray
Format in all cases: binding, human
AIRE (PP) = conditions: AIRE (PP), GST-tagged; arrays performed twice, n of 4
Description: (§1) To more comprehensively define the histone interactions of the 31 PHD readers identified from the domain microarray analyses, we probed each on an alternate microarray platform containing a library of 293 synthetic histone peptides with single or combinatorial PTMs (Additional file 2: Figure S4 and Additional file 3: Table S2).
(§2) The 31 GST-tagged PHD readers identified in the PHD finger domain array were expressed and purified as previously. Histone peptide arrays and peptide pulldown assays were conducted as recently described (specifically, the optimized protocol from Petell et al. for the former).
(§3) Supplementary file 13072_2020_328_MOESM3_ESM.xlsx: Additional file 3: Table S2. […] Excel Tab Peptide List is a compiled list of the entire 293 histone peptide library with amino acid sequence ranges. […] Each number corresponds to the peptide number designated in Peptide List. Excel Tab Average Signals is a compiled set of binding data: chromatin reader at 0.5 μM vs. entire 293 peptide library. Data is presented as the average and standard deviation of 4 replicates. The average signals are colored to indicate signal intensity with green being strong and white being weak/low. […] Key: red= stronger relative binding; blue = weaker relative binding. Excel Tab Array info summary is a table summarizing the domains, sequence coverage, array signal range, and noise for each of the GST-tagged readers assayed on the peptide microarrays.

BAZ2B = conditions: BAZ2B, GST-tagged; arrays performed twice, n of 4
Description: as §1, §2, §3

BPTF (PB) = conditions: BPTF (PB), GST-tagged; arrays performed twice, n of 4
Description: as §1, §2, §3

CHD4 (PPCC) = conditions: CHD4 (PPCC), GST-tagged; arrays performed twice, n of 4
Description: as §1, §2, §3

CHD5 (PCC) = conditions: CHD5 (PCC), GST-tagged; arrays performed twice, n of 4
Description: as §1, §2, §3

CHD5 (PPCC) = conditions: CHD5 (PPCC), GST-tagged; arrays performed twice, n of 4
Description: as §1, §2, §3

DIDO1 = conditions: DIDO1, GST-tagged; arrays performed twice, n of 4
Description: as §1, §2, §3

DPF2 (PPC2W2) = conditions: DPF2 (PPC2W2), GST-tagged; arrays performed twice, n of 4
Description: as §1, §2, §3

ING1 = conditions: ING1, GST-tagged; arrays performed twice, n of 4
Description: as §1, §2, §3

ING2 = conditions: ING2, GST-tagged; arrays performed twice, n of 4
Description: as §1, §2, §3

ING3 = conditions: ING3, GST-tagged; arrays performed twice, n of 4
Description: as §1, §2, §3

ING4 = conditions: ING4, GST-tagged; arrays performed twice, n of 4
Description: as §1, §2, §3

ING5 = conditions: ING5, GST-tagged; arrays performed twice, n of 4
Description: as §1, §2, §3

KDM4C (TTP) = conditions: KDM4C (TTP), GST-tagged; arrays performed twice, n of 4
Description: as §1, §2, §3

KDM5A (1) = conditions: KDM5A (1), GST-tagged; arrays performed twice, n of 4
Description: as §1, §2, §3

KDM5A (3) = conditions: KDM5A (3), GST-tagged; arrays performed twice, n of 4
Description: as §1, §2, §3

KDM5B (1) = conditions: KDM5B (1), GST-tagged; arrays performed twice, n of 4
Description: as §1, §2, §3

KDM5B (3) = conditions: KDM5B (3), GST-tagged; arrays performed twice, n of 4
Description: as §1, §2, §3

KDM7A = conditions: KDM7A, GST-tagged; arrays performed twice, n of 4
Description: as §1, §2, §3

MLL5 = conditions: MLL5, GST-tagged; arrays performed twice, n of 4
Description: as §1, §2, §3

MORC3 (CW) = conditions: MORC3 (CW), GST-tagged; arrays performed twice, n of 4
Description: as §1, §2, §3

PHF13 = conditions: PHF13, GST-tagged; arrays performed twice, n of 4
Description: as §1, §2, §3

PHF21A = conditions: PHF21A, GST-tagged; arrays performed twice, n of 4
Description: as §1, §2, §3

PHF23 = conditions: PHF23, GST-tagged; arrays performed twice, n of 4
Description: as §1, §2, §3

PHF2 = conditions: PHF2, GST-tagged; arrays performed twice, n of 4
Description: as §1, §2, §3

PHF8 = conditions: PHF8, GST-tagged; arrays performed twice, n of 4
Description: as §1, §2, §3

PHRF1 (RP) = conditions: PHRF1 (RP), GST-tagged; arrays performed twice, n of 4
Description: as §1, §2, §3

RAG2 = conditions: RAG2, GST-tagged; arrays performed twice, n of 4
Description: as §1, §2, §3

SP140L = conditions: SP140L, GST-tagged; arrays performed twice, n of 4
Description: as §1, §2, §3

TAF3 = conditions: TAF3, GST-tagged; arrays performed twice, n of 4
Description: as §1, §2, §3

TRIM66 (PB) = conditions: TRIM66 (PB), GST-tagged; arrays performed twice, n of 4
Description: as §1, §2, §3

Substance	Array Heatmap value (peptide array binding signal) (AIRE (PP))	Array Heatmap value (peptide array binding signal) (BAZ2B)	Array Heatmap value (peptide array binding signal) (BPTF (PB))	Array Heatmap value (peptide array binding signal) (CHD4 (PPCC))	Array Heatmap value (peptide array binding signal) (CHD5 (PCC))	Array Heatmap value (peptide array binding signal) (CHD5 (PPCC))	Array Heatmap value (peptide array binding signal) (DIDO1)	Array Heatmap value (peptide array binding signal) (DPF2 (PPC2W2))	Array Heatmap value (peptide array binding signal) (ING1)	Array Heatmap value (peptide array binding signal) (ING2)	Array Heatmap value (peptide array binding signal) (ING3)	Array Heatmap value (peptide array binding signal) (ING4)	Array Heatmap value (peptide array binding signal) (ING5)	Array Heatmap value (peptide array binding signal) (KDM4C (TTP))	Array Heatmap value (peptide array binding signal) (KDM5A (1))	Array Heatmap value (peptide array binding signal) (KDM5A (3))	Array Heatmap value (peptide array binding signal) (KDM5B (1))	Array Heatmap value (peptide array binding signal) (KDM5B (3))	Array Heatmap value (peptide array binding signal) (KDM7A)	Array Heatmap value (peptide array binding signal) (MLL5)	further results
H2AR3me2a + K5ac: H2A 1-17 (SG[Arg(Me2a)]GK(Ac)QGGKARAKAKTR; UniProt P0C0S8 2-18, looked up, fragment)	0.4061	0.4585	0.3416	0.5411	0.7634	0.5209	0.6572	0.6169	0.502	0.5954	0.4528	0.4409	0.3401	0.4418	0.4472	0.4055	0.6265	0.4618	0.3242	0.5527	Array Heatmap value (peptide array binding signal) (MORC3 (CW)): 0.3531; Array Heatmap value (peptide array binding signal) (PHF13): 0.6011; Array Heatmap value (peptide array binding signal) (PHF21A): 0.4417; Array Heatmap value (peptide array binding signal) (PHF23): 0.5294; Array Heatmap value (peptide array binding signal) (PHF2): 0.5234; Array Heatmap value (peptide array binding signal) (PHF8): 0.3477; Array Heatmap value (peptide array binding signal) (PHRF1 (RP)): 0.4082; Array Heatmap value (peptide array binding signal) (RAG2): 0.2374; Array Heatmap value (peptide array binding signal) (SP140L): 0.3352; Array Heatmap value (peptide array binding signal) (TAF3): 0.2475; Array Heatmap value (peptide array binding signal) (TRIM66 (PB)): 0.6358
H2AS1p + K5ac + K9ac + K13ac + K15ac: H2A 1-17 ([pS]GRGK(Ac)QGGK(Ac)ARAK(Ac)AK(Ac)TR; UniProt P0C0S8 2-18, looked up, fragment)	0.5117	0.4549	0.3406	0.5891	0.7774	0.5428	0.6263	0.6038	0.5008	0.5905	0.4609	0.4636	0.3496	0.5241	0.482	0.391	0.6538	0.5168	0.4384	0.519	Array Heatmap value (peptide array binding signal) (MORC3 (CW)): 0.4032; Array Heatmap value (peptide array binding signal) (PHF13): 0.6036; Array Heatmap value (peptide array binding signal) (PHF21A): 0.4797; Array Heatmap value (peptide array binding signal) (PHF23): 0.5205; Array Heatmap value (peptide array binding signal) (PHF2): 0.4023; Array Heatmap value (peptide array binding signal) (PHF8): 0.3673; Array Heatmap value (peptide array binding signal) (PHRF1 (RP)): 0.4027; Array Heatmap value (peptide array binding signal) (RAG2): 0.2429; Array Heatmap value (peptide array binding signal) (SP140L): 0.3555; Array Heatmap value (peptide array binding signal) (TAF3): 0.2828; Array Heatmap value (peptide array binding signal) (TRIM66 (PB)): 0.5729
H2AS1p + K5ac: H2A 1-17 ([pS]GRGK(Ac)QGGKARAKAKTR; UniProt P0C0S8 2-18, looked up, fragment)	0.2932	0.3559	0.2697	0.4644	0.6294	0.3972	0.6049	0.5432	0.485	0.5878	0.3526	0.3411	0.2521	0.3213	0.3412	0.4071	0.5673	0.3803	0.2299	0.4623	Array Heatmap value (peptide array binding signal) (MORC3 (CW)): 0.3086; Array Heatmap value (peptide array binding signal) (PHF13): 0.4493; Array Heatmap value (peptide array binding signal) (PHF21A): 0.3599; Array Heatmap value (peptide array binding signal) (PHF23): 0.4819; Array Heatmap value (peptide array binding signal) (PHF2): 0.5004; Array Heatmap value (peptide array binding signal) (PHF8): 0.2793; Array Heatmap value (peptide array binding signal) (PHRF1 (RP)): 0.3697; Array Heatmap value (peptide array binding signal) (RAG2): 0.2266; Array Heatmap value (peptide array binding signal) (SP140L): 0.2923; Array Heatmap value (peptide array binding signal) (TAF3): 0.2127; Array Heatmap value (peptide array binding signal) (TRIM66 (PB)): 0.4856
